Results reported in US20120213758A1, “BIARYL PDE4 INHIBITORS FOR TREATING PULMONARY AND CARDIOVASCULAR DISORDERS” (DeCODE Genetics enf, priority 2007, published 2012).
Counter-ions that a name gives are not always drawn. Like-named read-outs stand apart in the source and are kept apart here.

Experiments:
hPDE4D = hPDE4D (Homo sapiens, UniProt Q08499); test: In-vitro real-time enzyme-coupled spectrophotometric assay for PDE4 enzymes (hPDE4D)
hPDE4B = hPDE4B (Homo sapiens, UniProt Q07343); test: In-vitro real-time enzyme-coupled spectrophotometric assay for PDE4 enzymes (hPDE4B)
Chain of hPDE4B (Q07343 whole entry): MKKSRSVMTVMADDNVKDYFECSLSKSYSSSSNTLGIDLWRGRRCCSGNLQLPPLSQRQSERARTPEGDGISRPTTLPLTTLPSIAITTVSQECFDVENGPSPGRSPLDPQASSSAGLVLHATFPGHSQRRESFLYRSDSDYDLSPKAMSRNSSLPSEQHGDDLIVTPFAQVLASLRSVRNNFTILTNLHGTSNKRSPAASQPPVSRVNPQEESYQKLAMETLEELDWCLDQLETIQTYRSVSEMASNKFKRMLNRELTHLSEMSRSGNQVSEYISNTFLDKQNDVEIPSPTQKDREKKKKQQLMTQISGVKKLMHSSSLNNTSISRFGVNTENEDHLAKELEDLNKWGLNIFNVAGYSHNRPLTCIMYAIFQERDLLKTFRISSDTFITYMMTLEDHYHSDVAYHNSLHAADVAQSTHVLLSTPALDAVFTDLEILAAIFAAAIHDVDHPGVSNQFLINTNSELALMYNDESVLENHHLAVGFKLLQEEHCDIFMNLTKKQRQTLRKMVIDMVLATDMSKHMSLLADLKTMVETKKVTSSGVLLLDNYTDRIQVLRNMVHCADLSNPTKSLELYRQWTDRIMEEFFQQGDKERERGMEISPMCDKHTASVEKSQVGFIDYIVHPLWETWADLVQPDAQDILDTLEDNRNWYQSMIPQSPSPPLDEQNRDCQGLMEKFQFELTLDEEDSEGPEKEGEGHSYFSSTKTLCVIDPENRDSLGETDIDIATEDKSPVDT

[1] = test system: experimentally-induced interstitial cystitis; settings: rats; frequency of urination decreased, urine volume per urination increased; cited from earlier work
[2] = test system: patients suffering from asthma and COPD; settings: effect of cilomilast disappeared on long-term trial; cited from earlier work

Chain of hPDE4D (Q08499 whole entry): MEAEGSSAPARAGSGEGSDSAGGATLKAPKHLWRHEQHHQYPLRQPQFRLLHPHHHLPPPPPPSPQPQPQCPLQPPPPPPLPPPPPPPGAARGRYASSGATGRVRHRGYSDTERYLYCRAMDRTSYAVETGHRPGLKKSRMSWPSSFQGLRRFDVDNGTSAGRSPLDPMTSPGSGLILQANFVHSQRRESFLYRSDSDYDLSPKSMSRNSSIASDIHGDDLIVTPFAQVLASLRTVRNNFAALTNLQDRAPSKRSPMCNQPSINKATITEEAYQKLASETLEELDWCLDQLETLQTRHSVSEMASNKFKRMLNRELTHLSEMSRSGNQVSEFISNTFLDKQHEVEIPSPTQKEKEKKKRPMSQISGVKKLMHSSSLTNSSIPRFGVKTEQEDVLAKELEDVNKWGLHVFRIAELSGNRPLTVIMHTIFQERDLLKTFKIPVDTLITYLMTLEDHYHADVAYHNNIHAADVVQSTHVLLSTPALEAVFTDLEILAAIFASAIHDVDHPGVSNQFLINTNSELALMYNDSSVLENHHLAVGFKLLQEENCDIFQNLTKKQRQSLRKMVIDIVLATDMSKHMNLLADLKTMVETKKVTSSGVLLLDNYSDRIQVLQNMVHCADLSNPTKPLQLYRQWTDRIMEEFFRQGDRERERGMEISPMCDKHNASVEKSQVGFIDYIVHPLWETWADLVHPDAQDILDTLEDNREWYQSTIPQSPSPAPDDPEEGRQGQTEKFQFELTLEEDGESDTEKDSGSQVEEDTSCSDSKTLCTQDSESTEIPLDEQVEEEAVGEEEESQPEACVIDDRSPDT

IC50 (hPDE4D) [µM] | IC50 (hPDE4B) [µM] | Compound | further results
< 5 | < 5 | COc1ccc(Cc2ccc3cnc(C(=O)O)n3c2)c(F)c1-c1cccc(Cl)c1 [Example A-051, 6-(3′-Chloro-2-fluoro-6-methoxy-biphenyl-3-ylmethyl)-imidazo[1,5-a]pyridine-3-carboxylic acid hydrochloride] | 
< 5 | 5 to 20 | COc1ccc(Cc2cnc(N3CC(C(=O)O)C3)nc2)c(F)c1-c1cccc(Cl)c1 [Example A-053, 1-[5-(3′-Chloro-2-fluoro-6-methoxy-biphenyl-3-ylmethyl)-pyrimidin-2-yl]-azetidine-3-carboxylic acid] | 
< 5 | < 5 | COc1ccc(Cc2ccc(N3CCC3C(=O)O)nc2)c(F)c1-c1cccc(Cl)c1 (centres unmarked) [Example A-054] | 
< 5 | < 5 | COc1ccc(Cc2ccc(N(CC(=O)O)C(N)=O)nc2)c(F)c1-c1cccc(Cl)c1 [Example A-057, {1-[5-(3′-chloro-2-fluoro-6-methoxy-biphenyl-3-ylmethyl)-pyridin-2-yl]-ureido}-acetic acid] | 
5 to 20 | 20 to 40 | COc1ccc(Cc2nnn[nH]2)c(F)c1-c1cccc(Cl)c1 [Example A-058, 5-(3′-Chloro-2-fluoro-6-methoxy-biphenyl-3-ylmethyl)-1H-tetrazole] | 
< 5 | 5 to 20 | COc1ccc(Cn2cnc(C(=O)O)c2)c(F)c1-c1cccc(Cl)c1 [Example A-059, 1-(3′-Chloro-2-fluoro-6-methoxy-biphenyl-3-ylmethyl)-1H-imidazole-4-carboxylic acid] | 
< 5 | 5 to 20 | COc1ccc(Cn2cncc2C(=O)O)c(F)c1-c1cccc(Cl)c1 [Example A-060, 3-(3′-Chloro-2-fluoro-6-methoxy-biphenyl-3-ylmethyl)-3H-imidazole-4-carboxylic acid] | 
< 5 | 5 to 20 | COc1ccc(Cc2ccc(N3CC[C@@H]3C(=O)O)nc2)c(F)c1-c1cccc(Cl)c1 [Example A-061, (R)-1-[5-(3′-chloro-2-fluoro-6-methoxy-biphenyl-3-ylmethyl)-pyridin-2-yl]-azetidine-2-carboxylic acid] | 
< 5 | < 5 | COc1ccc(Cc2ccc(N3CCC[C@H]3C(=O)O)nc2)c(F)c1-c1cccc(Cl)c1 [Example A-063, (S)-1-[5-(3′-chloro-2-fluoro-6-methoxy-biphenyl-3-ylmethyl)-pyridin-2-yl]-pyrrolidine-2-carboxylic acid] | 
 |  | COc1ccc(C(O)c2ccc(NC(=O)NNC(C)=O)cc2)c(F)c1-c1cccc(Cl)c1 (centres unmarked) [Example A-065, 1-acetic amido-3-{4-[(3′-chloro-2-fluoro-6-methoxy-biphenyl-3-yl)-hydroxy-deutero-methyl]-phenyl}-urea] | IC50 (hPDE4D; read-out: hPDE4D activity, enzyme-coupled NADH assay, absorbance at 340 nm): < 5 µM; IC50 (hPDE4B; read-out: hPDE4B activity, enzyme-coupled NADH assay, absorbance at 340 nm): 5 to 20 µM
< 5 | < 5 | COc1ccc(Cc2ccc(N3CC[C@H]3C(=O)O)nc2)c(F)c1-c1cccc(Cl)c1 [Example A-066, (S)-1-[5-(3′-chloro-2-fluoro-6-methoxy-biphenyl-3-ylmethyl)-pyridin-2-yl]-azetidine-2-carboxylic acid] | 
< 5 | 5 to 20 | COc1ccc(Cc2ccc(N3CCC3C(=O)O)nc2)cc1-c1cccc(Cl)c1 (centres unmarked) [Example A-067, 1-[5-(3′-chloro-6-methoxy-biphenyl-3-ylmethyl)-pyridin-2-yl]-azetidine-2-carboxylic acid acetate salt] | 
< 5 | < 5 | COc1ccc(Cc2ccc(N3CCC[C@H]3C(=O)O)nc2)cc1-c1cccc(Cl)c1 [Example A-068, (S)-1-[5-(3′-chloro-6-methoxy-biphenyl-3-ylmethyl)-pyridin-2-yl]-pyrrolidine-2-carboxylic acid] | 
< 5 | 5 to 20 | COc1ccc(Cc2ccc(N3CCCC(C(=O)O)C3)nc2)c(F)c1-c1cccc(Cl)c1 (centres unmarked) [Example A-070, 5′-(3′-Chloro-2-fluoro-6-methoxy-biphenyl-3-ylmethyl)-3,4,5,6-tetrahydro-2H-[1,2′]bipyridinyl-3-carboxylic acid] | 
< 5 | < 5 | COC(=O)c1ccc(Cc2ccc(OC)c(-c3cccc(Cl)c3)c2)cn1 [Example A-073, 5-(3′-chloro-6-methoxy-biphenyl-3-ylmethyl)-pyridine-2-carboxylic methyl ester] | 
< 5 | < 5 | COc1ccc(Cc2ccc(N(C)CC(=O)O)nc2)c(F)c1-c1cccc(Cl)c1 [Example A-074, {[5-(3′-chloro-2-fluoro-6-methoxy-biphenyl-3-ylmethyl)-pyridin-2-yl]-methyl-amino}-acetic acid] | 
< 5 | < 5 | COC(=O)c1ccc(Cc2ccc(OC(F)F)c(-c3cccc(Cl)c3)c2)cn1 [Example A-075, 5-(3′-Chloro-6-difluoromethoxy-biphenyl-3-ylmethyl)-pyridine-2-carboxylic acid methyl ester] | 
< 5 | < 5 | FC(F)Oc1ccc(Cc2ccc(-c3nnn[nH]3)nc2)cc1-c1cccc(Cl)c1 [Example A-076, 5-(3′-Chloro-6-difluoromethoxy-biphenyl-3-ylmethyl)-2-(1H-tetrazol-5-yl)-pyridine hydrochloride salt] | 
< 5 | < 5 | COc1ccc(Cc2ccc(F)cc2)[n+]([O-])c1-c1cccc([N+](=O)[O-])c1 [Example B-080, 6-(4-Fluoro-benzyl)-3-methoxy-2-(3-nitro-phenyl)-pyridine 1-oxide] | 
< 5 | < 5 | CCNC(=O)Nc1ccc(Cc2ccc(OC)c(-c3cccc(Cl)c3)c2F)c[n+]1O [Example B-081, 1-[5-(3′-Chloro-2-fluoro-6-methoxy-biphenyl-3-ylmethyl)-1-oxy-pyridin-2-yl]-3-ethyl-urea] | 
< 5 | < 5 | CCNC(=O)NCc1ccc(Cc2ccc(OC)c(-c3cccc(Cl)c3)c2F)c[n+]1[O-] [Example B-082, 1-[5-(3′-Chloro-2-fluoro-6-methoxy-biphenyl-3-ylmethyl)-1-oxy-pyridin-2-ylmethyl]-3-ethyl-urea] | 
< 5 | < 5 | COc1ccc(Cc2ccc(CN3CCNC3=O)[n+]([O-])c2)c(F)c1-c1cccc(Cl)c1 [Example B-083, 1-[5-(3′-Chloro-2-fluoro-6-methoxy-biphenyl-3-ylmethyl)-1-oxy-pyridin-2-ylmethyl]-imidazolidin-2-one] | 
 |  | CCc1ccc2c(-c3cccc(Cl)c3)nc(=O)n(CC)c2n1 [YM976] | effect on experimentally-induced interstitial cystitis [1]: ameliorate the effects of experimentally-induced interstitial cystitis in rats
 |  | COc1ccc([C@]2(C#N)CC[C@@H](C(=O)O)CC2)cc1OC1CCCC1 [cilomilast] | clinical effect in asthma and COPD [2]: showed initially excellent results
 |  | O=C(Nc1c(Cl)cncc1Cl)c1ccc(OC(F)F)c(OCC2CC2)c1 [roflumilast] | clinical effect in asthma and COPD [2]: showed initially excellent results
